Data taken from PMC2362731, “Phase I study of Carzelesin (U-80,244) given (4-weekly) by intravenous bolus schedule” (British Journal of Cancer, 1999).

Test system: patients with advanced solid tumours
Assay: Phase I toxicity of Carzelesin, 4-weekly 10 min IV infusion (NCI-CTC grading)
Type: in vivo, human
Experimental: Carzelesin is a cyclopropylpyrroloindole analogue which acts as a DNA-sequence-specific alkylating agent. In this phase I study, Carzelesin was given as a 4-weekly 10 min IV infusion to 51 patients with advanced solid tumours. Patients received a median of two courses (range 1–5) at one of nine dose levels: 24, 48, 96, 130, 150, 170, 210, 250 and 300 μg m^−2. According to NCI-CTC criteria, non-haematological toxicities (grade 1/2) included fever, nausea and vomiting, mucositis and anorexia, none of which was clearly dose related. The dose-limiting toxicity was haematological and consisted mainly of neutropenia and to a lesser extent thrombocytopenia. From the dose level 150 μg m^−2, the haematological toxicity (particularly thrombocytopenia) was delayed in onset, prolonged and cumulative in some patients. In several courses, double WBC nadirs occurred. The maximum tolerated dose for a single course was 300 μg m^−2. From the dose level 170 μg m^−2, the intended dose intensity could not be delivered to most patients receiving > 2 courses owing to cumulative haematological toxicity. The dose level with the best dose intensity for multiple courses was 150 μg m^−2. The pharmacokinetics of Carzelesin and its metabolites (U-76,073; U-76,074) have been established in 31 patients during the first course of treatment using a HPLC method. […] The concentration of U-76,074 (active metabolite) extended above the lower limit of quantitation (1 ng ml^−1) for short periods of time and only at the higher dose levels. There was no relationship between neutropenia and the AUC of the prodrug Carzelesin, but the presence of detectable plasma levels of the active metabolite U-76,074 was usually associated with a substantial decrease in ANC values. © 1999 Cancer Research Campaign
Carzelesin (U-80,244, Figure 1A) is a cyclopropylpyrroloindole (CPI) prodrug analogue of CC-1065. […] CPI drugs are a class of compounds with unique DNA interactive properties. These agents fit into the minor groove region of DNA, and the CPI function in the molecule mediates a covalent binding to the N3 position of adenine in A-T rich regions, thus forming DNA adducts in a sequence selective fashion (Hurley et al, 1984; Reynolds et al, 1985). Three new CPIs have now been developed. […] Bizelesin differs from the classical CPI drugs in that it contains two chloromethyl functions, which are both converted (via intramolecular rearrangements) to the CPI alkyl- ating species that interact with DNA. Consequently, this agent is capable of forming DNA interstrand cross-links (Lee et al, 1991). […] Therefore, efforts were directed to modu- late the alkylation rate by the preparation of CPI prodrugs that would require chemical or enzymatic conversion. The activation of Carzelesin is a two-step reaction with hydrolysis of the phenyl- urethane substituent to form the intermediate compound U-76,073, followed by ring closure to form the active product U-76,074 (Figure 1B). […] This higher efficacy may be related to the pharmacologic features of the compound. […] Phase I study of Carzelesin (U-80,244) given (4-weekly) by intravenous bolus schedule A Awada1, CJA Punt2, MJ Piccart1, O Van Tellingen3, L Van Manen2, J Kerger1, Y Groot4, J Wanders4, J Verweij5 and DJTh Wagener2 1Institut Jules Bordet, Bd de Waterloo 125, 1000 Brussels, Belgium; 2University Hospital, Geert Grooteplein 8, Box 9101, 6500 HB Nijmegen, The Netherlands; 3The Netherlands Cancer Institute (Antoni van Leeuwenhoek Huis), Plesmanlaan 121, 1066 CX Amsterdam, The Netherlands; 4European Organization for Research and Treatment of Cancer - New Drug Development Office, PO Box 7057, Amsterdam, The Netherlands; 5Rotterdam Cancer Institute, Groene Hilledijk 301, 3075 EA Rotterdam, The Netherlands; on behalf of the EORTC Early Clinical Studies Group and EORTC NDDO Summary Carzelesin is a cyclopropylpyrroloindole analogue which acts as a DNA-sequence-specific alkylating agent. […]

[1] = Table 4, dose levels 150-300 μg m-2 combined, 31 evaluable patients

SMILES: CCN(CC)c1ccc2cc(C(=O)Nc3ccc4[nH]c(C(=O)N5C[C@@H](CCl)c6c5cc(OC(=O)Nc5ccccc5)c5[nH]cc(C)c65)cc4c3)oc2c1 [Carzelesin]
- Thrombocytopenia grade 3/4, patients following the first course (Table 3, dose level 210 μg m-2, one patient had pre-existing grade 1 thrombocytopenia): 0/1
- Neutropenia grade 3/4, No. of courses (Table 3, dose level 250 μg m-2): 1/2
- Neutropenia grade 3/4, No. of patients (worst grade per patient) (Table 3, dose level 250 μg m-2): 0/2
- Neutropenia grade 3/4, patients following the first course (Table 3, dose level 250 μg m-2): 1/1
- No. of toxic patients following the first course (Table 3, dose level 250 μg m-2): 2
- Thrombocytopenia grade 3/4, No. of courses (Table 3, dose level 250 μg m-2): 1/1
- Thrombocytopenia grade 3/4, No. of patients (worst grade per patient) (Table 3, dose level 250 μg m-2): 1/1
- Thrombocytopenia grade 3/4, patients following the first course (Table 3, dose level 250 μg m-2): 1/0
- No. of toxic patients/courses (grade 3/4 neutropenia and/or thrombocytopenia) (Table 3, dose level 250 μg m-2, 5/7 evaluable patients/courses): 2/3
- Neutropenia grade 3/4, No. of courses (Table 3, dose level 300 μg m-2): 1/2
- Neutropenia grade 3/4, No. of patients (worst grade per patient) (Table 3, dose level 300 μg m-2): 1/2
- Neutropenia grade 3/4, patients following the first course (Table 3, dose level 300 μg m-2): 1/2
- No. of toxic patients following the first course (Table 3, dose level 300 μg m-2): 3
- Thrombocytopenia grade 3/4, No. of courses (Table 3, dose level 300 μg m-2): 1/1
- Thrombocytopenia grade 3/4, No. of patients (worst grade per patient) (Table 3, dose level 300 μg m-2): 1/1
- Thrombocytopenia grade 3/4, patients following the first course (Table 3, dose level 300 μg m-2): 1/1
- No. of toxic patients/courses (grade 3/4 neutropenia and/or thrombocytopenia) (Table 3, dose level 300 μg m-2, 4/4 evaluable patients/courses): 3/3
- Anorexia, patients with worst CTC-grade 1 [1]: 5
- Anorexia, patients with worst CTC-grade 2 [1]: 5
- Anorexia, patients with worst CTC-grade 3 [1]: 0
- Anorexia, patients with worst CTC-grade 4 [1]: 0
- Bilirubin toxicity, patients with worst CTC-grade 2 [1]: 6
- Bilirubin toxicity, patients with worst CTC-grade 3 [1]: 1
- Bilirubin toxicity, patients with worst CTC-grade 4 [1]: 0
- Creatinine toxicity, patients with worst CTC-grade 1 [1]: 6
- Creatinine toxicity, patients with worst CTC-grade 2 [1]: 1
- Creatinine toxicity, patients with worst CTC-grade 3 [1]: 0
- Creatinine toxicity, patients with worst CTC-grade 4 [1]: 0
- Diarrhoea, patients with worst CTC-grade 1 [1]: 5
- Diarrhoea, patients with worst CTC-grade 2 [1]: 1
- Diarrhoea, patients with worst CTC-grade 3 [1]: 0
- Fatigue/asthenia, patients with worst CTC-grade 1 [1]: 3
- Fatigue/asthenia, patients with worst CTC-grade 2 [1]: 9
- Fatigue/asthenia, patients with worst CTC-grade 3 [1]: 3
- Fatigue/asthenia, patients with worst CTC-grade 4 [1]: 0
- Fever, patients with worst CTC-grade 1 [1]: 4
- Fever, patients with worst CTC-grade 2 [1]: 5
- Fever, patients with worst CTC-grade 3 [1]: 2
- Fever, patients with worst CTC-grade 4 [1]: 0
- Mucositis, patients with worst CTC-grade 1 [1]: 7
- Mucositis, patients with worst CTC-grade 2 [1]: 1
- Mucositis, patients with worst CTC-grade 3 [1]: 0
- Mucositis, patients with worst CTC-grade 4 [1]: 0
- Nausea, patients with worst CTC-grade 1 [1]: 11
- Nausea, patients with worst CTC-grade 2 [1]: 6
- Nausea, patients with worst CTC-grade 3 [1]: 2
- Nausea, patients with worst CTC-grade 4 [1]: 0
- Pain at the infusion site, patients with worst CTC-grade 1 [1]: 9
- Pain at the infusion site, patients with worst CTC-grade 2 [1]: 2
- Pain at the infusion site, patients with worst CTC-grade 3 [1]: 0
- Pain at the infusion site, patients with worst CTC-grade 4 [1]: 0
- Proteinuria, patients with worst CTC-grade 1 [1]: 3
- Proteinuria, patients with worst CTC-grade 2 [1]: 0
- Proteinuria, patients with worst CTC-grade 3 [1]: 0
- Proteinuria, patients with worst CTC-grade 4 [1]: 0
- Vomiting, patients with worst CTC-grade 1 [1]: 7
- Vomiting, patients with worst CTC-grade 2 [1]: 5
- Vomiting, patients with worst CTC-grade 3 [1]: 2
- Vomiting, patients with worst CTC-grade 4 [1]: 0
- Diarrhoea, patients with worst CTC-grade 4 (Table 4, dose levels 150-300 μg m-2 combined, 31 evaluable patients, relation to Carzelesin was unlikely): 1
- patients who received red cell transfusions while on study (different dose levels from 130): Nine patients
- patients with grade 4 myelotoxicity (dose level 150, six evaluable patients): two patients out of six
- episode of febrile neutropenia (dose level 250): One patient
- patients with grade 4 neutropenia (dose level 300): two out of four
- patients with grade 4 myelotoxicity (dose levels 96 and 130): two patients
- grade 3 or 4 haematological toxicities (first two dose levels (24, 48)): no grade 3 or 4 haematological toxici- ties were observed
- second drop in leucocyte and neutrophil count after apparent recovery, evaluable courses (from the dose level of 130): 26%
- second drop in leucocyte and neutrophil count after apparent recovery, evaluable patients (from the dose level of 130): 33%
- non-haematological toxicities, overall (grade 1-2, none clearly dose related): infrequent and mild
- flush reaction, patients (in vivo): five patients
- haemorrhagic episodes during treatment (in vivo): No haemorrhagic episodes
- dose-limiting toxicity (mainly neutropenia, to a lesser extent thrombocytopenia): haematological
- median days to complete recovery, neutrophils (overall, median (range)): 28 (20-35) days
- median days to complete recovery, platelets (overall, median (range)): 33 (24-56) days
- median days to nadir, neutrophils (overall, median (range)): 12 (8-14) days
- median days to nadir, platelets (overall, median (range)): 20 (15-26) days
